Experimental data reported in patent US20100190755A1, “TETRACYCLINE COMPOUNDS FOR THE TREATMENT OF RHEUMATOID ARTHRITIS AND RELATED METHODS OF TREATMENT” (priority 2008, published 2010).
Values after ≈ are worked out from the molar mass of the structure shown.

Tests used:
[1] = tested on: E. coli 25922; assay: Antibacterial activity MIC, Gram- (Table 9); format: cell-based; settings: Escherichia coli, CAMHB, 35° C., approximately 18 hr
Method: (§1) 2 mg of each compound is dissolved in 100 μl of DMSO. The solution is then added to cation-adjusted Mueller Hinton broth (CAMHB), which results in a final compound concentration of 200 μg per ml. The tetracycline compound solutions are diluted to 50 μL volumes, with a test compound concentration of 0.098 μg/ml. Optical density (OD) determinations are made from fresh log-phase broth cultures of the test strains. Dilutions are made to achieve a final cell density of 1×10^6 CFU/ml. At OD=1, cell densities for different genera should be approximately:
(§2) 50 μl of the cell suspensions are added to each well of microtiter plates. The final cell density should be approximately 5×10^5 CFU/ml. These plates are incubated at 35° C. in an ambient air incubator for approximately 18 hr. The plates are read with a microplate reader and are visually inspected when necessary. The MIC is defined as the lowest concentration of the tetracycline compound that inhibits growth.

[2] = tested on: collagen-induced arthritis (CIA) in male DBA/1 mice; assay: CIA model, Example 3 (cumulative scores vs untreated controls); format: in vivo; settings: Mus musculus
Method: The CIA model data were acquired according to the following protocol: • 1. Male DBA/1 mice were anaesthetized by i.p. injection of ketamine/xylazine (1.25 mg/ml:0.25 mg/ml, 100 μl/mouse). • 2. Anaesthetized mice were immunized intradermally at the base of the tail with 0.1 or 0.2 ml of an emulsion composed of 100 or 200 μg bovine type II collagen in Complete Freund's Adjuvant (50 μl/spot x 2 or 4 spots). • 3. At day 21 after the immunization, mice received an intradermal boost of 100 μl of an emulsion composed of 100 μg bovine type II collagen in Incomplete Freund's Adjuvant (50 μl/spot x 2 spots) • 4. After onset of disease symptoms (usually 3-4 days after boost), tetracycline derivatives were administered daily into mice via intraperitoneal or oral routes for 8 to 15 days. Methotrexate (12 mg/kg/day) or dexmethasone (4 mg/kg/day) was used as a control for inflammation suppression. • 5. The disease severity was scored daily for 8-15 days after the appearance of the symptoms. Disease severity was graded as following: • a. Visual clinical score for the presence of inflammation in the fingers/toes of the forepaws and hindpaws: • 1. Erythema and mild swelling confined to the mid-foot (tarsals) or ankle joint • 2. Erythema and mild swelling extending from the ankle to the mid-foot • 3. Erythema and moderate swelling extending from the ankle to the metatarsal joints • 4. Erythema and severe swelling encompassing the ankle, foot, and digits. • b. Clinical swelling score for the presence of paw edema in the forepaws and hindpaws: • Paw thickness was measured daily by an engineering micrometer after isofluorane inhalation or ketamine/xylazine (1.25 mg/ml:0.25 mg/ml, 100 μl/mouse) i.p. injection.
Daily scores and paw swelling measurements for each treatment group of mice were added over the total observation period to obtain a cumulative score. Cumulative scores were compared between untreated controls and treated groups to determine tetracycline-induced inhibition.

[3] = tested on: S. aureus RN450; assay: Antibacterial activity MIC, Gram+ (Table 9); format: cell-based; settings: Staphylococcus aureus, CAMHB, 35° C., approximately 18 hr
Method: as §1, §2

| Compound | MIC [1] | MIC [3] | inhibition in vivo at 25 mg/kg [2] | inhibition in vivo at 12 mg/kg [2] | inhibition in vivo at 6 mg/kg ([2]; Dose 6 mg/kg) |
| --- | --- | --- | --- | --- | --- |
| CCOC(=O)c1cc(N(C)C)c2c(c1O)C(=O)C1=C(O)[C@]3(O)C(=O)C(C(N)=O)=C(O)C[C@@H]3C[C@@H]1C2 [AA] | > 64 µg/mL | 2 µg/mL (≈ 4.11 µM) | 41% | – | – |
| CN(C)c1cc(-c2cnoc2)c(O)c2c1C[C@H]1C[C@H]3CC(O)=C(C(N)=O)C(=O)[C@@]3(O)C(O)=C1C2=O [AB] | > 64 µg/mL | 0.5 µg/mL (≈ 1.04 µM) | 38% | – | – |
| CN(C)c1cc(-c2ccn[nH]2)c(O)c2c1C[C@H]1C[C@H]3CC(O)=C(C(N)=O)C(=O)[C@@]3(O)C(O)=C1C2=O [AC] | > 64 µg/mL | 2 µg/mL (≈ 4.16 µM) | 33% | – | – |
| CO/N=C(/C)c1cc(N(C)C)c2c(c1O)C(=O)C1=C(O)[C@]3(O)C(=O)C(C(N)=O)=C(O)C[C@@H]3C[C@@H]1C2 [AD] | > 64 µg/mL | 2 µg/mL (≈ 4.12 µM) | 30% | – | – |
| CN(C)c1cc(-c2cccnc2)c(O)c2c1C[C@H]1C[C@H]3CC(O)=C(C(N)=O)C(=O)[C@@]3(O)C(O)=C1C2=O [AE] | > 64 µg/mL | 1 µg/mL (≈ 2.03 µM) | 80% | 65% | – |
| CN(C)c1cc(-c2ccco2)c(O)c2c1C[C@H]1C[C@H]3CC(O)=C(C(N)=O)C(=O)[C@@]3(O)C(O)=C1C2=O [AG] | > 64 µg/mL | 0.25 µg/mL (≈ 0.52 µM) | 39% | – | – |
| CN(C)c1cc(C(=O)NC(C)(C)C)c(O)c2c1C[C@H]1C[C@H]3CC(O)=C(C(N)=O)C(=O)[C@@]3(O)C(O)=C1C2=O [AH] | > 64 µg/mL | 1 µg/mL (≈ 1.95 µM) | 59% | – | – |
| CN(C)c1cc(C(=O)Nc2ccccc2)c(O)c2c1C[C@H]1C[C@H]3CC(O)=C(C(N)=O)C(=O)[C@@]3(O)C(O)=C1C2=O [AI] | > 64 µg/mL | 0.12 µg/mL (≈ 0.225 µM) | 62% | – | – |
| CN(C)c1cc(-c2nccs2)c(O)c2c1C[C@H]1C[C@H]3CC(O)=C(C(N)=O)C(=O)[C@@]3(O)C(O)=C1C2=O [AJ] | > 64 µg/mL | 0.25 µg/mL (≈ 0.502 µM) | 39% | – | – |
| CN(C)c1cc(C(=O)OCCO)c(O)c2c1C[C@H]1C[C@H]3CC(O)=C(C(N)=O)C(=O)[C@@]3(O)C(O)=C1C2=O [AK] | > 64 µg/mL | > 64 µg/mL | 24% | – | – |
| CCC(=O)c1cc(N(C)C)c2c(c1O)C(=O)C1=C(O)[C@]3(O)C(=O)C(C(N)=O)=C(O)C[C@@H]3C[C@@H]1C2 [AL] | > 64 µg/mL | 1 µg/mL (≈ 2.13 µM) | 62% | 31% | – |
| Cc1cc(N(C)C)c2c(c1O)C(=O)C1=C(O)[C@]3(O)C(=O)C(C(N)=O)=C(O)C[C@@H]3C[C@@H]1C2 [AM] | > 64 µg/mL | 2 µg/mL (≈ 4.67 µM) | 73% | 66% | 36% |
| CN(C)c1cc(-c2ccccc2)c(O)c2c1C[C@H]1C[C@H]3CC(O)=C(C(N)=O)C(=O)[C@@]3(O)C(O)=C1C2=O [AN] | > 64 µg/mL | 1 µg/mL (≈ 2.04 µM) | 65% | 49% | – |
| COCCOC(=O)c1cc(N(C)C)c2c(c1O)C(=O)C1=C(O)[C@]3(O)C(=O)C(C(N)=O)=C(O)C[C@@H]3C[C@@H]1C2 [AO] | > 64 µg/mL | 16 µg/mL (≈ 31 µM) | 52% | – | – |
| CN(C)c1cc(C2=CCCCO2)c(O)c2c1C[C@H]1C[C@H]3CC(O)=C(C(N)=O)C(=O)[C@@]3(O)C(O)=C1C2=O [AP] | > 64 µg/mL | 4 µg/mL (≈ 8.06 µM) | 63% | – | – |
| CC(C)c1noc(-c2cc(N(C)C)c3c(c2O)C(=O)C2=C(O)[C@]4(O)C(=O)C(C(N)=O)=C(O)C[C@@H]4C[C@@H]2C3)n1 [AR] | > 64 µg/mL | 0.5 µg/mL (≈ 0.953 µM) | 64% | – | – |
| CN(C)c1cc(-c2ccnn2C)c(O)c2c1C[C@H]1C[C@H]3CC(O)=C(C(N)=O)C(=O)[C@@]3(O)C(O)=C1C2=O [AS] | > 64 µg/mL | 1 µg/mL (≈ 2.02 µM) | 56% | 30% | – |
| CC(C)c1cc(N(C)C)c2c(c1O)C(=O)C1=C(O)[C@]3(O)C(=O)C(C(N)=O)=C(O)C[C@@H]3C[C@@H]1C2 [AU] | > 64 µg/mL | 1 µg/mL (≈ 2.19 µM) | 51% | – | – |
| CN(C)c1cc(CC(C)(C)C)c(O)c2c1C[C@H]1C[C@H]3CC(O)=C(C(N)=O)C(=O)[C@@]3(O)C(O)=C1C2=O [AW] | > 64 µg/mL | 0.5 µg/mL (≈ 1.03 µM) | 39% | – | – |
| CN(C)c1cc(C(=O)CC(C)(C)C)c(O)c2c1C[C@H]1C[C@H]3CC(O)=C(C(N)=O)C(=O)[C@@]3(O)C(O)=C1C2=O [AX] | > 64 µg/mL | 0.5 µg/mL (≈ 0.975 µM) | 51% | – | – |
| COc1cc(-c2ccc(O)c3c2C[C@H]2C[C@H]4[C@H](N(C)C)C(O)=C(C(N)=O)C(=O)[C@@]4(O)C(O)=C2C3=O)cc(OC)c1OC [Compound D] | – | – | 27% | – | – |
| CN(C)c1ccc(O)c2c1C[C@H]1C[C@H]3CC(O)=C(C(N)=O)C(=O)[C@@]3(O)C(O)=C1C2=O [F] | – | – | 55% | – | – |
| C=CCc1cc(N(C)C)c2c(c1O)C(=O)C1=C(O)[C@]3(O)C(=O)C(C(N)=O)=C(O)[C@@H](N(C)C)[C@@H]3C[C@@H]1C2 [I] | – | – | 29% | – | – |

Now from value to compound, other results behind:

| MIC [1] | MIC [3] | Compound | inhibition in vivo at 25 mg/kg [2] | inhibition in vivo at 12 mg/kg [2] | inhibition in vivo at 6 mg/kg ([2]; Dose 6 mg/kg) |
| --- | --- | --- | --- | --- | --- |
| > 64 µg/mL | 8 µg/mL (≈ 19.4 µM) | Cc1ccc(N(C)C)c2c1C(=O)C1=C(O)[C@]3(O)C(=O)C(C(N)=O)=C(O)C[C@@H]3C[C@@H]1C2 [AY] | 38% | – | – |
| > 64 µg/mL | 1 µg/mL (≈ 1.93 µM) | CN(C)c1cc(C(=O)c2ccccc2)c(O)c2c1C[C@H]1C[C@H]3CC(O)=C(C(N)=O)C(=O)[C@@]3(O)C(O)=C1C2=O [AZ] | 36% | – | – |
| 64 µg/mL (≈ 166 µM) | 0.25 µg/mL (≈ 0.649 µM) | Cc1ccc(O)c2c1C[C@H]1C[C@H]3CC(O)=C(C(N)=O)C(=O)[C@@]3(O)C(O)=C1C2=O [BA] | 34% | – | – |
| > 64 µg/mL | 8 µg/mL (≈ 18.2 µM) | NC(=O)C1=C(O)C[C@@H]2C[C@@H]3Cc4c(-c5ncco5)ccc(O)c4C(=O)C3=C(O)[C@]2(O)C1=O [BB] | 47% | – | – |
| > 64 µg/mL | 4 µg/mL (≈ 9.68 µM) | CC(=O)c1ccc(O)c2c1C[C@H]1C[C@H]3CC(O)=C(C(N)=O)C(=O)[C@@]3(O)C(O)=C1C2=O [BC] | 72% | – | – |
| > 64 µg/mL | 0.5 µg/mL (≈ 1.04 µM) | CN(C)c1cc(C(F)(F)F)c(O)c2c1C[C@H]1C[C@H]3CC(O)=C(C(N)=O)C(=O)[C@@]3(O)C(O)=C1C2=O [BD] | 44% | – | – |
| 64 µg/mL (≈ 120 µM) | 0.13 µg/mL (≈ 0.243 µM) | CN(C)[C@@H]1C(O)=C(C(N)=O)C(=O)[C@@]2(O)C(O)=C3C(=O)c4c(O)ccc(-c5ccc6c(c5)OCO6)c4C[C@H]3C[C@@H]12 [B] | 23% | – | – |
| 0.13 µg/mL (≈ 0.285 µM) | 0.06 µg/mL (≈ 0.131 µM) | CC(=O)c1ccc(O)c2c1C[C@H]1C[C@H]3[C@H](N(C)C)C(O)=C(C(N)=O)C(=O)[C@@]3(O)C(O)=C1C2=O [C] | 62% | 62% | – |
| > 64 µg/mL | 1 µg/mL (≈ 2.2 µM) | CN(C)c1cc(C2CC2)c(O)c2c1C[C@H]1C[C@H]3CC(O)=C(C(N)=O)C(=O)[C@@]3(O)C(O)=C1C2=O [Compound AV] | 48% | – | – |
| > 64 µg/mL | 1 µg/mL (≈ 1.87 µM) | CN(C)c1cc(-c2ccccc2)c(O)c2c1C[C@H]1C[C@H]3[C@H](N(C)C)C(O)=C(C(N)=O)C(=O)[C@@]3(O)C(O)=C1C2=O [Compound A] | 42% | – | – |
| > 64 µg/mL | 8 µg/mL (≈ 15.6 µM) | CCC(=O)c1cc(N(C)C)c2c(c1O)C(=O)C1=C(O)[C@]3(O)C(=O)C(C(N)=O)=C(O)[C@@H](N(C)C)[C@@H]3C[C@@H]1C2 [Compound M] | 25% | – | – |
